Here are results for 15 molecules from patent publication US12594264B2, “Modulators of alpha-synuclein proteolysis and associated methods of use” (Arvinas Operations, Inc., priority 2018, dated 2026).

Counter-ions that a name gives are not always drawn.

For the first data set, the target named is T1, sarkosyl insoluble (SI) α-synuclein (human α-SYN A53T) (Homo sapiens, UniProt P37840, A53T).
T1 construct: expressed in transfected cells
Description: MJFF-14-6-4-2 conformation specific ELISA of sarkosyl insoluble α-synuclein after compound treatment. Type of data set: cell-based. The settings on record: 1 μM compound; protein remaining relative to DMSO control; PFF induced A53T α-synuclein overexpressing HEK293 cells; read-out: Protein Degradation at 1 μM. On the procedure:
(§1) Targeted degradation of sarkosyl insoluble (SI) α-synuclein via exemplary bifunctional compounds was assessed by MJFF-14-6-4-2 conformation specific ELISA following treatment of PFF induced A53T α-synuclein overexpressing HEK293 cells with 1 μM exemplary compound compared to DMSO vehicle control. Degradation activity of the exemplary compounds of Table 2 is expressed as % DMSO control. […] However, the effect of bifunctional targeting degraders, shown in FIG. 5, required the intact E3 ligase binding domain.
(§2) Trex293 (doxycycline inducible) cells stably expressing human α-SYN A53T (monoclonal) were plated in poly-d-lysine coated T-75 tissue culture flasks (4.5×10e6 cells/flask) in DMEM with 10% tet-free FBS, 10 μg/ml blasticidin, and 400 μg/ml zeocin. After an overnight incubation, the cells were induced to express α-SYN by treatment with 1 μg/ml doxycycline (Dox) and exemplary bifunctional compound. After a 24 hour dox induction, the medium on the cells was changed to Opti-MEM followed by treatment with α-SYN pre-formed fibrils** (PFFs)(5 μg/flask) pre-complexed with Lipofectamine 2000 transfection reagent for 4 hours. After PFF treatment, the medium was changed back to DMEM with the supplements described above and exemplary bifunctional compound for 48 hours.
Cell pellets were harvested from each flask using 0.25% trypsin followed by spinning at 500×g for 5 minutes. Each pellet was resuspended in 1 ml cold buffer H [Buffer H-10 mM Tris, 1 mM EGTA, 0.8M NaCl, 10% sucrose, pH7.4 containing 1× protease and phosphatase inhibitors] containing protease and phosphatase inhibitors. The resuspended pellets were incubated on ice for 20 minutes followed by centrifugation at 27,200×g for 20 minutes at 4° C. The supernatants were adjusted to 1% sarkosyl (Sigma) and 1% 2-mercaptoethanol followed by incubation for 1 hour at 37° C. on an orbital shaker set to 400 rpm. The samples were then spun at 150,000×g for 35 minutes at room temperature. The supernatant was removed and saved as the soluble fraction and the insoluble pellet was resuspended in 25 μl tris-buffered saline (TBS). Protein concentrations were determined by NanoDrop, and normalized protein concentrations were analyzed by WES capillary electrophoresis as well as an α-SYN oligomer ELISA.
Recombinant human α-SYN was purchased from Proteos. 1 mg aliquots were supplied at 10 mg/ml in 10 mM Tris, 50 mM NaCl, pH7.6. The aliquot was thawed on ice followed by centrifugation at 4° C. for 10 minutes at 12,000×g to pellet any insoluble material. The supernatant was removed and quantitated on a NanoDrop (A280) using Beer's Law (ε=5960 M-1 cm-1). The concentration was adjusted to 5 mg/ml in PBS followed by vortexing for 3 seconds to mix contents. The mixture was incubated in an orbital shaker set to 37° C. at 1,000 rpm for 7 days followed by aliquoting into individual use vials. Prior to addition to cells, an aliquot was thawed at room temperature, then diluted to 1 mg/ml with phosphate-buffered saline (PBS) followed by sonication for 1 minute with a probe sonicator (output 1; 90% duty cycle) in a chem hood.
Coming Costar high bind black well plates were coated with MJFR 14-6-4-2 (Abcam) at 1 μg/ml for 1 hour at 37° C. followed by washing with 1×TBS+0.1% tween-20 (TBS-T) then blocking with 3% bovine serum albumin (BSA) in TBS. After re-washing, samples were added after dilution in diluent (1% BSA/TBS-T). Non-sonicated PFF was used to generate a standard curve. The plates were incubated with sample overnight at 4° C. with shaking. The following day alkaline phosphatase (AP) conjugated MJFR 14-6-4-2 was added to the plate without washing followed by incubation at room temperature for 1 hour with shaking or rocking. The plates were then re-washed and substrate (CDP star alkaline phosphatase detection reagent) was added followed by a 30 minute incubation at room temperature. The plate was read on a luminescence plate reader. The counts were log transformed and read off the standard curve. […]
Consider `O=C1CCC(N2C(=O)c3ccc(N4CCN(CCN5CCC(O[C@H]6C[C@H](Oc7ccc8c(c7)Sc7cc([N+](=O)[O-])ccc7N8)C6)CC5)CC4)cc3C2=O)C(=O)N1` (stereo partly shown) [Exemplary Compound 18, 2-(2,6-dioxo-3-piperidyl)-5-[4-[2-[4-[3-[(7-nitro-10H-phenothiazin-3-yl)oxy]cyclobutoxy]-1-piperidyl]ethyl]piperazin-1-yl]isoindoline-1,3-dione], for which the remaining activity at 1 µM fell in the range of 70 to 120%. On the same count and under the same terms, the value for `O=C1CCC(N2C(=O)c3ccc(OCCCCCN4CCC(O[C@H]5C[C@H](Oc6ccc7c(c6)Sc6cc([N+](=O)[O-])ccc6N7)C5)CC4)cc3C2=O)C(=O)N1` (stereo partly shown) [Exemplary Compound 19, 2-(2,6-dioxo-3-piperidyl)-5-[5-[4-[3-[(7-nitro-10H-phenothiazin-3-yl)oxy]cyclobutoxy]-1-piperidyl]pentoxy]isoindoline-1,3-dione] was 35 to 70%. As for `CN(C)c1ccc2c(c1)Sc1cc(OCCOCCOCCOCCOCCOc3ccc4c(c3)C(=O)N(C3CCC(=O)NC3=O)C4=O)ccc1N2` (stereo not shown) [Exemplary Compound 21, 5-((14-((7-(dimethylamino)-10H-phenothiazin-3-yl)oxy)-3,6,9,12-tetraoxatetradecyl)oxy)-2-(2,6-dioxopiperidin-3-yl)isoindoline-1,3-dione], the remaining activity at 1 µM was in the range of 35 to 70%. Still for that read-out and setting: the value for `O=C1CCC(N2C(=O)c3ccc(OCCCCCN4CCC(OC5CN(CCCN6c7ccccc7Sc7ccccc76)C5)CC4)cc3C2=O)C(=O)N1` (stereo not shown) [Exemplary Compound 22, 2-(2,6-dioxo-3-piperidyl)-5-[5-[4-[1-(3-phenothiazin-10-ylpropyl)azetidin-3-yl]oxy-1-piperidyl]pentoxy]isoindoline-1,3-dione] was 35 to 70%; that for `CN(C)c1ccc(-c2nc3ccc(O[C@H]4C[C@H](OCCCN5CCN(c6ccc7c(c6)C(=O)N(C6CCC(=O)NC6=O)C7=O)CC5)C4)cc3s2)cc1` (stereo partly shown) [Exemplary Compound 24, 2-(2,6-dioxopiperidin-3-yl)-5-(4-[3-[(1r,3r)-3-([2-[4-(dimethylamino)phenyl]-1,3-benzothiazol-6-yl]oxy)cyclobutoxy]propyl]piperazin-1-yl)-2,3-dihydro-1H-isoindole-1,3-dione] was above 120%. Same read-out and setting: the value for `COc1ccc2nc(-c3ccc(N4CC(OC5CCN(CCN6CCN(c7ccc8c(c7)C(=O)N(C7CCC(=O)NC7=O)C8=O)CC6)CC5)C4)cc3)sc2c1` (stereo not shown) [Exemplary Compound 26, 2-(2,6-dioxopiperidin-3-yl)-5-(4-[2-[4-([1-[4-(6-methoxy-1,3-benzothiazol-2-yl)phenyl]azetidin-3-yl]oxy)piperidin-1-yl]ethyl]piperazin-1-yl)-2,3-dihydro-1H-isoindole-1,3-dione] was 35 to 70%; that for `CN(C)c1ccc(-c2nc3ccc(O[C@H]4C[C@H](OC5CCN(CCCCCOc6ccc7c(c6)C(=O)N(C6CCC(=O)NC6=O)C7=O)CC5)C4)cc3s2)cc1` (stereo partly shown) [Exemplary Compound 27, 2-(2,6-dioxopiperidin-3-yl)-5-[(5-[4-[(1r,3r)-3-([2-[4-(dimethylamino)phenyl]-1,3-benzothiazol-6-yl]oxy)cyclobutoxy]piperidin-1-yl]pentyl)oxy]-2,3-dihydro-1H-isoindole-1,3-dione] was above 120%.

Take `O=C1CCC(N2C(=O)c3ccc(N4CCN(CCCO[C@H]5C[C@H](Oc6ccc7c(c6)Sc6cc([N+](=O)[O-])ccc6N7)C5)CC4)cc3C2=O)C(=O)N1` (stereo partly shown) [Exemplary Compound 30, 2-(2,6-dioxo-3-piperidyl)-5-[4-[3-[3-[(7-nitro-10H-phenothiazin-3-yl)oxy]cyclobutoxy]propyl]piperazin-1-yl]isoindoline-1,3-dione formate]: the remaining activity at 1 µM lay in the range of 35 to 70%.

On to `O=C1CCC(N2C(=O)c3ccc(OCCCCCN4CCC(O[C@H]5C[C@H](Oc6ccc(CN7C(=O)C(=CC=Cc8ccc([N+](=O)[O-])cc8)c8ccccc87)cc6)C5)CC4)cc3C2=O)C(=O)N1` (stereo partly shown) [Exemplary Compound 31, 2-(2,6-dioxopiperidin-3-yl)-5-((5-(4-((1r,3r)-3-(4-(((Z)-3-((E)-3-(4-nitrophenyl)allylidene)-2-oxoindolin-1-yl)methyl)phenoxy)cyclobutoxy)piperidin-1-yl)pentyl)oxy)isoindoline-1,3-dione], for which the remaining activity at 1 µM lay within 70 to 120%. The same measure, in the same setting: the value for `Cc1ncsc1-c1ccc([C@H](C)NC(=O)[C@@H]2C[C@@H](O)CN2C(=O)[C@@H](NC(=O)CN2CCN(CCN3CCC(O[C@H]4C[C@H](Oc5ccc6c(c5)Sc5cc([N+](=O)[O-])ccc5N6)C4)CC3)CC2)C(C)(C)C)cc1` [Exemplary Compound 34, (2S,4R)-1-((S)-3,3-dimethyl-2-(2-(4-(2-(4-((1r,3r)-3-((7-nitro-10H-phenothiazin-3-yl)oxy)cyclobutoxy)piperidin-1-yl)ethyl)piperazin-1-yl)acetamido)butanoyl)-4-hydroxy-N-((S)-1-(4-(4-methylthiazol-5-yl)phenyl)ethyl)pyrrolidine-2-carboxamide] was below 35%; that for `COc1cc(/C=C/c2ccc3cc(OCCOCCOCCOCC(=O)N[C@H](C(=O)N4C[C@H](O)C[C@H]4C(=O)N[C@@H](C)c4ccc(-c5scnc5C)cc4)C(C)(C)C)ccc3n2)ccn1` [Exemplary Compound 35, (2S,4R)-1-((S)-2-(tert-butyl)-14-((2-((E)-2-(2-methoxypyridin-4-yl)vinyl)quinolin-6-yl)oxy)-4-oxo-6,9,12-trioxa-3-azatetradecanoyl)-4-hydroxy-N—((S)-1-(4-(4-methylthiazol-5-yl)phenyl)ethyl)pyrrolidine-2-carboxamide] was 35 to 70%. Same read-out and setting: the value for `COc1cc(/C=C/c2ccc3cc(OCCOCCOCCOCCOc4ccc5c(c4)C(=O)N(C4CCC(=O)NC4=O)C5=O)ccc3n2)ccn1` (stereo not shown) [Exemplary Compound 36, 2-(2,6-dioxo-3-piperidyl)-5-[2-[2-[2-[2-[[2-[(E)-2-(2-methoxy-4-pyridyl)vinyl]-6-quinolyl]oxy]ethoxy]ethoxy]ethoxy]ethoxy]isoindoline-1,3-dione] was above 120%; that for `COc1cc(/C=C/c2ccc3cc(OCCOCCOCCOc4ccc5c(c4)C(=O)N(C4CCC(=O)NC4=O)C5=O)ccc3n2)ccn1` (stereo not shown) [Exemplary Compound 47, (E)-2-(2,6-dioxopiperidin-3-yl)-5-(2-(2-(2-((2-(2-(2-methoxypyridin-4-yl)vinyl)quinolin-6-yl)oxy)ethoxy)ethoxy)ethoxy)isoindoline-1,3-dione] was 70 to 120%.

A further data set relates to PFF induced HEK293 TREX α-syn A53T cells. Put plainly: Cytotoxicity by visual inspection of treated cells. The following applies: 1 μM. Type of data set: cell-based, human. On the procedure:
as §1, §2
To assess targeted degradation of sarkosyl insoluble α-synuclein, exemplary bifunctional compounds designed to bind to oligomeric α-synuclein were tested at 1 μM in PFF induced HEK293 TREX α-syn A53T cells.
`Cc1ncsc1-c1ccc([C@H](C)NC(=O)[C@@H]2C[C@@H](O)CN2C(=O)[C@@H](NC(=O)COCCOCCOc2ccc(CN3C(=O)C(=CC=Cc4ccc([N+](=O)[O-])cc4)c4ccccc43)cc2)C(C)(C)C)cc1` (single isomer, unassigned) [Exemplary Compound 6]: the “Cytotoxicity at the concentration tested” value was “without any visual impact to cell health”. Same read-out and setting: the value for `O=C1CCC(N2C(=O)c3ccc(OCCOCCOCCOCCOc4ccc5c(c4)Sc4cc([N+](=O)[O-])ccc4N5)cc3C2=O)C(=O)N1` (stereo not shown) [Exemplary Compound 13, 2-(2,6-dioxo-3-piperidyl)-5-[2-[2-[2-[2-[(7-nitro-10H-phenothiazin-3-yl)oxy]ethoxy]ethoxy]ethoxy]ethoxy]isoindoline-1,3-dione] was “cytotoxicity”.

The same data set, now with this note: 1 μM, listed as 13.
Take `O=C1CCC(N2C(=O)c3ccc(OCCOCCOCCOCCOc4ccc5c(c4)Sc4cc([N+](=O)[O-])ccc4N5)cc3C2=O)C(=O)N1` (stereo not shown) [Exemplary Compound 13, 2-(2,6-dioxo-3-piperidyl)-5-[2-[2-[2-[2-[(7-nitro-10H-phenothiazin-3-yl)oxy]ethoxy]ethoxy]ethoxy]ethoxy]isoindoline-1,3-dione]: the “Cytotoxicity at the concentration tested” value is given as “cytotoxic”.
